# Laboratory results reported in patent publication US6653529B2, “Use of the maize X112 mutant ahas 2 gene and imidazolinone herbicides for selection of transgenic monocots, maize, rice and wheat plants resistant to the imidazolinone herbicides” (BASF Aktiengesellschaft, priority 2000, dated 2003).
# Tests used:
# Type in all cases: in vivo
# [1] = tested on: untransformed Nt rice plants; assay: Response of rice plants to various herbicides, seed set in greenhouse; conditions: post-emergence, 1× g ai/ha: PURSUIT 62.5, CADRE 32, ARSENAL 24, RAPTOR 32, SCEPTER 125, ACCENT 35, CLASSIC 5, AC322,140 20, LONDAX 68
# From the text: (§1) A total of 9 herbicides, 5 imidazolinones, two rice herbicides and ACCENT® (nicosulfuron) and CLASSIC® (clorimuron-ethyl) were applied in this study. Materials and methods were basically the same as described above, except that instead of 6″ pots, flats with 18 (3″×3″ per cell) cells were used, and 10-12 seeds were planted to one 3″×3″ cell. Ten plants were maintained in one cell in the post-emergence application. Each herbicide was sprayed at 4 different rates, 1, 2, 4, and 6×, as either pre or post-emergence applications with three replications per treatment. The name and amount of herbicide applied in this experiment and information relevant to their commercial applications are listed in Table 3. For simplicity and convenience, the lowest concentration used is referred as 1× rate, 2, 4 and 6× rates can be calculated as multiples of 1×.
# (§2) To monitor plant response to various herbicides, data on fresh weight was collected. For pre-emergence applications, all plants from one cell were harvested 32 days after spraying (36-day old plants) and weighed. Twenty-nine days after herbicide application, 5 plants (44-day old plants) from each cell in the post-emergence application, were cut and weighed individually. Mean fresh weight for each treatment was calculated over three replications. The remaining 5 plants were grown in the greenhouse to maturity at which time, panicles of 3 plants were collected, and number of filled seeds and number of total kernels were counted to determine percentage of seed set.
# transgenic rice Line 26 = assay: as above; conditions: post-emergence, 1× g ai/ha: PURSUIT 62.5, CADRE 32, ARSENAL 24, RAPTOR 32, SCEPTER 125, ACCENT 35, CLASSIC 5, AC322,140 20, LONDAX 68
# From the text: as §1, §2
# transgenic rice Line 29 = assay: as above; conditions: post-emergence, 1× g ai/ha: PURSUIT 62.5, CADRE 32, ARSENAL 24, RAPTOR 32, SCEPTER 125, ACCENT 35, CLASSIC 5, AC322,140 20, LONDAX 68
# From the text: as §1, §2
# [2] = tested on: rice plants (transgenic Lines 26 and 29; Nt control); assay: Greenhouse herbicide tests on rice; conditions: for effect on growth of all plants treated: transgenic and control plants
# From the text: We evaluated the response of transgenic rice to PURSUIT® imazethapyr application in the greenhouse. In this experiment, we included 2 transgenic lines and their untransformed counterpart (Nt). The transgenic lines, designated as Line 26 and 29, were T3 progeny derived from previously identified homozygous resistant transgenic plants containing the maize XI12 ahas2 gene driven by its own promoter. All seeds were pre-germinated in water for 2-3 days then grown in a planting mixture consisting of 1:1 soil and MetroMix 360 (The Scotts Company, Marysville, Ohio 43040) in 6-inch pots (2 seeds per pot) in the greenhouse and sprayed with PURSUIT® imazethapyr at 63, 125, or 250 g ai/ha. For post-emergence application, the plants were sprayed 15 days after seeding, at which time most plants had 3 leaves. For pre-emergence treatment, PURSUIT® imazethapyr was sprayed one day after seeding. Each treatment contained 20 plants and, and 3 replicates per treatment. One set of materials was not sprayed and used as control. The plants were grown in the greenhouse and harvested at maturity. The amount of PURSUIT® imazethapyr applied in this study (63, 125, or 250 g ai/ha) was close to 1, 2 or 4× field application rate for imi-resistant corn (refer to Table 3) since PURSUIT® imazethapyr is not currently labeled for use in rice fields. A custom designed belt sprayer was operated as described (Newhouse et al. 1992) for all herbicide applications. Five plants from each treatment were randomly chosen and individually measured for morphological traits. Means and standard deviations were calculated over three replications. Plant heights were measured from the base of the plant to the tip of the flag leaf 93 days after herbicide applications (DAH) and number of tillers per plant were counted 102-103 DAH. Data on number of panicles per plant and yield were collected after plants were harvested.
# as §1, §2
Structure (SMILES),% seed-set ([1]; 1× rate),No. filled seeds/3 panicles ([1]; 1× rate),Total No. of kernels/3 panicles ([1]; 1× rate),% seed-set ([1]; 2× rate),No. filled seeds/3 panicles ([1]; 2× rate),Total No. of kernels/3 panicles ([1]; 2× rate),% seed-set ([1]; 4× rate),No. filled seeds/3 panicles ([1]; 4× rate),Total No. of kernels/3 panicles ([1]; 4× rate),% seed-set ([1]; 6× rate),No. filled seeds/3 panicles ([1]; 6× rate),Total No. of kernels/3 panicles ([1]; 6× rate),% seed-set (transgenic rice Line 26; 1× rate),No. filled seeds/3 panicles (transgenic rice Line 26; 1× rate),Total No. of kernels/3 panicles (transgenic rice Line 26; 1× rate),% seed-set (transgenic rice Line 26; 2× rate),No. filled seeds/3 panicles (transgenic rice Line 26; 2× rate),Total No. of kernels/3 panicles (transgenic rice Line 26; 2× rate),% seed-set (transgenic rice Line 26; 4× rate),No. filled seeds/3 panicles (transgenic rice Line 26; 4× rate),further results
"COc1cc(OC)nc(NC(=O)NS(=O)(=O)Nc2ccccc2C(=O)C2CC2)n1 [AC 322,140, cyclosulfamuron]",93%,175,187,93%,158,171,95%,83,86,98%,118,121,90%,144,160,94%,158,168,91%,166,Total No. of kernels/3 panicles (transgenic rice Line 26; 4× rate): 182; % seed-set (transgenic rice Line 26; 6× rate): 85%; No. filled seeds/3 panicles (transgenic rice Line 26; 6× rate): 134; Total No. of kernels/3 panicles (transgenic rice Line 26; 6× rate): 158; % seed-set (transgenic rice Line 29; 1× rate): 91%; No. filled seeds/3 panicles (transgenic rice Line 29; 1× rate): 150; Total No. of kernels/3 panicles (transgenic rice Line 29; 1× rate): 166; % seed-set (transgenic rice Line 29; 2× rate): 92%; No. filled seeds/3 panicles (transgenic rice Line 29; 2× rate): 172; Total No. of kernels/3 panicles (transgenic rice Line 29; 2× rate): 187; % seed-set (transgenic rice Line 29; 4× rate): 80%; No. filled seeds/3 panicles (transgenic rice Line 29; 4× rate): 129; Total No. of kernels/3 panicles (transgenic rice Line 29; 4× rate): 160; % seed-set (transgenic rice Line 29; 6× rate): 87%; No. filled seeds/3 panicles (transgenic rice Line 29; 6× rate): 134; Total No. of kernels/3 panicles (transgenic rice Line 29; 6× rate): 154; effect on growth of all plants treated [2]: minimal effect
"COc1cc(OC)nc(NC(=O)NS(=O)(=O)c2ncccc2C(=O)N(C)C)n1 [ACCENT ®, nicosulfuron]",3%,6,24,0%,0,0,0%,0,0,0%,0,0,34%,82,145,0%,0,0,0%,0,Total No. of kernels/3 panicles (transgenic rice Line 26; 4× rate): 0; % seed-set (transgenic rice Line 26; 6× rate): 0%; No. filled seeds/3 panicles (transgenic rice Line 26; 6× rate): 0; Total No. of kernels/3 panicles (transgenic rice Line 26; 6× rate): 0; % seed-set (transgenic rice Line 29; 1× rate): 82%; No. filled seeds/3 panicles (transgenic rice Line 29; 1× rate): 94; Total No. of kernels/3 panicles (transgenic rice Line 29; 1× rate): 114; % seed-set (transgenic rice Line 29; 2× rate): 10%; No. filled seeds/3 panicles (transgenic rice Line 29; 2× rate): 24; Total No. of kernels/3 panicles (transgenic rice Line 29; 2× rate): 48; % seed-set (transgenic rice Line 29; 4× rate): 0%; No. filled seeds/3 panicles (transgenic rice Line 29; 4× rate): 0; Total No. of kernels/3 panicles (transgenic rice Line 29; 4× rate): 0; % seed-set (transgenic rice Line 29; 6× rate): 0%; No. filled seeds/3 panicles (transgenic rice Line 29; 6× rate): 0; Total No. of kernels/3 panicles (transgenic rice Line 29; 6× rate): 0; effect on plant growth at 1× rates ([2]; post-emergence): greatly affected plant growth
"CCOC(=O)c1ccccc1S(=O)(=O)NC(=O)Nc1nc(Cl)cc(OC)n1 [CLASSIC ®, chlorimuron-ethyl]",87%,87,99,92%,90,97,0%,0,0,0%,0,0,83%,95,114,93%,100,108,28%,26,Total No. of kernels/3 panicles (transgenic rice Line 26; 4× rate): 65; % seed-set (transgenic rice Line 26; 6× rate): 20%; No. filled seeds/3 panicles (transgenic rice Line 26; 6× rate): 10; Total No. of kernels/3 panicles (transgenic rice Line 26; 6× rate): 18; % seed-set (transgenic rice Line 29; 1× rate): 88%; No. filled seeds/3 panicles (transgenic rice Line 29; 1× rate): 115; Total No. of kernels/3 panicles (transgenic rice Line 29; 1× rate): 130; % seed-set (transgenic rice Line 29; 2× rate): 85%; No. filled seeds/3 panicles (transgenic rice Line 29; 2× rate): 112; Total No. of kernels/3 panicles (transgenic rice Line 29; 2× rate): 132; % seed-set (transgenic rice Line 29; 4× rate): 37%; No. filled seeds/3 panicles (transgenic rice Line 29; 4× rate): 35; Total No. of kernels/3 panicles (transgenic rice Line 29; 4× rate): 45; % seed-set (transgenic rice Line 29; 6× rate): 4%; No. filled seeds/3 panicles (transgenic rice Line 29; 6× rate): 5; Total No. of kernels/3 panicles (transgenic rice Line 29; 6× rate): 14; effect on plant growth at 1× rates ([2]; post-emergence): greatly affected plant growth
"COC(=O)c1ccccc1CS(=O)(=O)NC(=O)Nc1nc(OC)cc(OC)n1 [LONDAX ®, bensulfuron-methyl]",85%,147,172,93%,142,154,91%,113,127,96%,109,114,80%,140,173,90%,140,156,65%,102,Total No. of kernels/3 panicles (transgenic rice Line 26; 4× rate): 136; % seed-set (transgenic rice Line 26; 6× rate): 89%; No. filled seeds/3 panicles (transgenic rice Line 26; 6× rate): 127; Total No. of kernels/3 panicles (transgenic rice Line 26; 6× rate): 143; % seed-set (transgenic rice Line 29; 1× rate): 80%; No. filled seeds/3 panicles (transgenic rice Line 29; 1× rate): 125; Total No. of kernels/3 panicles (transgenic rice Line 29; 1× rate): 156; % seed-set (transgenic rice Line 29; 2× rate): 90%; No. filled seeds/3 panicles (transgenic rice Line 29; 2× rate): 133; Total No. of kernels/3 panicles (transgenic rice Line 29; 2× rate): 148; % seed-set (transgenic rice Line 29; 4× rate): 87%; No. filled seeds/3 panicles (transgenic rice Line 29; 4× rate): 155; Total No. of kernels/3 panicles (transgenic rice Line 29; 4× rate): 177; % seed-set (transgenic rice Line 29; 6× rate): 86%; No. filled seeds/3 panicles (transgenic rice Line 29; 6× rate): 150; Total No. of kernels/3 panicles (transgenic rice Line 29; 6× rate): 175; effect on growth of all plants treated [2]: minimal effect
"CC(C)C1(C)N=C(c2nc3ccccc3cc2C(=O)O)NC1=O (stereo not shown) [SCEPTER ®, imazaquin]",0%,0,0,0%,0,0,0%,0,0,0%,0,0,86%,148,172,64%,87,135,88%,147,"Total No. of kernels/3 panicles (transgenic rice Line 26; 4× rate): 166; % seed-set (transgenic rice Line 26; 6× rate): 62%; No. filled seeds/3 panicles (transgenic rice Line 26; 6× rate): 86; Total No. of kernels/3 panicles (transgenic rice Line 26; 6× rate): 109; % seed-set (transgenic rice Line 29; 1× rate): 87%; No. filled seeds/3 panicles (transgenic rice Line 29; 1× rate): 138; Total No. of kernels/3 panicles (transgenic rice Line 29; 1× rate): 159; % seed-set (transgenic rice Line 29; 2× rate): 86%; No. filled seeds/3 panicles (transgenic rice Line 29; 2× rate): 143; Total No. of kernels/3 panicles (transgenic rice Line 29; 2× rate): 165; % seed-set (transgenic rice Line 29; 4× rate): 85%; No. filled seeds/3 panicles (transgenic rice Line 29; 4× rate): 131; Total No. of kernels/3 panicles (transgenic rice Line 29; 4× rate): 155; % seed-set (transgenic rice Line 29; 6× rate): 88%; No. filled seeds/3 panicles (transgenic rice Line 29; 6× rate): 139; Total No. of kernels/3 panicles (transgenic rice Line 29; 6× rate): 159; average seed set in two transgenic lines ([2]; PURSUIT, RAPTOR, CADRE, SCEPTER at all rates tested, ARSENAL 1 to 2×): about 85%; rate at which growth of transgenic plants was slightly affected ([2]; post-emergence, fresh weight and visual observation): 6 ×; rate at which growth of both transgenic lines was affected ([2]; pre-emergence): ≥ 2 ×"
